Read-outs that look alike come from different tables or passages of the source.
Tests used:
BSA [1] = target: T1, BSA (Bos taurus, UniProt P02769); assay: LSTDLPF-based Kd determination with fluorescence detection, BSA/fluorescein; format: binding, bovine
Method: In an experimental implementation of the method, LSTDLPF was carried out with flow conditions inside the capillary tube being as close to LPF as possible. It is known that LPF is distorted at the capillary entrance open to a large-volume reservoir (A. Molki, L. Khezzar, A. Goharzadeh Eur. J. Phys. 2013, 34, 1127-1134).
The system operates in the following manner. A loop 116 is utilized in order to deliver the same amount of sample consistently. […] To complete the filling of the loop, the sample 110 was introduced into the loop at 15 μL/min during 12 s (t1) by using a sample low pressure pump 126, which represents 3 times the volume of the loop (FIG. 8A). The low-pressure pump 126 may be, but is not limited to, a syringe pump or a peristaltic pump. While the loop is being filled as depicted in FIG. 8A, the capillary 108 is conditioned with the mobile phase 118 at high flow rate by using a high-pressure pump 124. This high flow rate corresponds to the flow rate utilized during the propagation and will be noted Qprop afterward.
The injection of the sample is illustrated in FIG. 8B. The positions of both valves 102 and 104 have been switched. In this configuration, the low-pressure pump 128 delivered the mobile phase 112 via the injection loop 116 which contained the sample or equilibrium mixture (EM) 110. […]

BSA [2] = target: T1, BSA; assay: LSTDLPF-MS (APCI mass-spectrometry detection) Kd determination, BSA/fluorescein; format: binding, bovine
Method: In another embodiment, the LSTDLPF setup was coupled with a mass-spectrometry (MS) detector. To facilitate complete dissociation of SM during ionization, an atmospheric pressure chemical ionization (APCI) ionization source was utilized (FIGS. 14A, 16A). The LSTDLPF-MS tandem was first used to study the same BSA/fluorescein binding pair. Experimental conditions were: internal capillary diameter=200 μm, capillary length=100 cm, flow rate of LPF=100 μL/min. loop's internal diameter=75 μm, loop's length=22.7 cm, loop's volume=1 μL, EM injection into the capillary followed by EM displacement from the capillary opening by 5 μL/min for 12 s (EM plug length=3.2 cm); “pre-separation” plug displacement by 5 μL/min for 12 s (3.2 cm displacement); [fluorescein]0=200 nM; and buffer was 30 mM ammonium acetate buffer at pH 7.5. MS experiments were carried out on a QTRAP 6500+ time-of-flight (Q-TOF) instrument (Sciex, Concord, ON, Canada) with a commercial Turbo V APCI ionization source. The optimal acceleration and focusing conditions were achieved by using 60 V declustering potential at 525° C. and 90 psi gas pressure. The analyses were performed in positive mode and scanned m/z 287 Da for fluorescein. The results were analyzed by using Analyst® QS 2.0 software.
The MS signal decreased with increasing [BSA]0 (FIG. 14A), due to the screening effect. The results presented repeatability (see FIGS. 15A-15I). Experimental conditions were: internal capillary diameter=200 μm, capillary length=100 cm, flow rate of LPF=100 μL/min. loop's internal diameter=75 μm, loop's length=22.7 cm, loop's volume=1 μL, EM injection by 5 μL/min for 12 s (plug length=3.2 cm); “pre-separation” plug displacement by 5 μL/min for 12 s (3.2 cm displacement); [fluorescein]0=200 nM; [BSA]0 ranged from 0 to 1 mM; and buffer was 30 mM ammonium acetate buffer at pH 7.5. MS experiments were carried out on a QTRAP 6500+ time-of-flight (Q-TOF) instrument (Sciex, Concord, ON, Canada) with a commercial Turbo V APCI ionization source. […] The results were analyzed by using Analyst® QS 2.0 software

BSA [3] = target: T1, BSA; conditions: known value, Andersson et al. Eur. J. Biochem. 1971; cited from earlier work
[4] = target: T2, α1-acid glycoprotein (AGP) (Homo sapiens, UniProt P02763); assay: LSTDLPF-MS (APCI mass-spectrometry detection) Kd determination, alprenolol/AGP; format: binding; conditions: α1-acid glycoprotein (AGP) in buffer, pH 7.5, Kd
T2 construct: Kd; [alprenolol]0=500 nM; 30 mM ammonium acetate p; Kd; other: MS detection
T2 sequence (P02763 19-201): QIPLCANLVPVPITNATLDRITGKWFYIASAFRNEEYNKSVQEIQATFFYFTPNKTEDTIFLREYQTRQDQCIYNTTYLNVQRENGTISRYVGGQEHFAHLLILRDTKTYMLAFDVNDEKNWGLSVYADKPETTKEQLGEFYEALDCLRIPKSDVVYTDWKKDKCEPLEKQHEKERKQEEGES
Method: The LSTDLPF-MS tandem was then used in Kd determination for a reversible binding pair of alprenolol and α1-acid glycoprotein (AGP).
MS experiments were carried out on a QTRAP 6500+ time-of-flight (Q-TOF) instrument (Sciex, Concord, ON, Canada) with a commercial Turbo V APCI ionization source. The optimal acceleration and focusing conditions were achieved by using 60 V declustering potential at 525° C. and 90 psi gas pressure. The analyses were performed in positive mode and scanned m/z 250 Da for alprenolol. The results were analyzed by using Analyst® QS 2.0 software. The propagation profiles obtained for [alprenolol]0=500 nM and varying [AGP]0 were reproducible (FIGS. 19A-19J). Experimental conditions were: internal capillary diameter=200 μm, capillary length=100 cm, flow rate of LPF=100 μL/min., loop's internal diameter=75 μm, loop's length=22.7 cm, loop's volume=1 μL; EM injection by 5 μL/min for 12 s (plug length=3.2 cm); “pre-separation” plug displacement by 5 μL/min for 12 s (3.2 cm displacement); [AGP]0 ranged from 0 to 1 mM; buffer was 30 mM ammonium acetate buffer at pH 7.5.
In this case, the screening phenomenon was characterized by enhancing signal of alprenolol with growing [AGP]0, (FIG. 16A). […] The method is also characterized by an acceptable reproducibility.

[5] = system: α1-acid glycoprotein (AGP); conditions: literature, cited from earlier work

T1 sequence (P02769 25-607): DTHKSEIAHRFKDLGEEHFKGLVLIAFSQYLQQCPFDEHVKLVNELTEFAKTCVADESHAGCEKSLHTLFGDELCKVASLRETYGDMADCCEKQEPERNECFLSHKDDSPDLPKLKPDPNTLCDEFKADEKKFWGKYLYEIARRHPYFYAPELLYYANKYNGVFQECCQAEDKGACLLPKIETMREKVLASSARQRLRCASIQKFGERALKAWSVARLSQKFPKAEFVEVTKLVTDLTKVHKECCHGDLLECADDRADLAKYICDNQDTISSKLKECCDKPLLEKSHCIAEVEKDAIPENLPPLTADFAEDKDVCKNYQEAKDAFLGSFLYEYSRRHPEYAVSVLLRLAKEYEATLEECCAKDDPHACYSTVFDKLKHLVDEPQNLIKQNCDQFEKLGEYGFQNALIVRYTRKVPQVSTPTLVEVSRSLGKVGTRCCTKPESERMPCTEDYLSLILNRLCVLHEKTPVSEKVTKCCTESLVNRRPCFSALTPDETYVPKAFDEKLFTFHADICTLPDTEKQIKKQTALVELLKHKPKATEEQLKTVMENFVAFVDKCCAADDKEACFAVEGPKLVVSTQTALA

SMILES	Kd (BSA [1]; single experiment, non-linear regression of isotherm with Equation 5, [fluorescein]0=200 nM, 30 mM ammonium acetate pH 7.5, error = SD of regression, read-out: Kd)	Kd (BSA [1]; triplicate experiment on three different days, error = SD of the three experiments, read-out: global Kd)	Kd (BSA [2]; after 2-step screening compensation, first experiment (FIG. 14C), [fluorescein]0=200 nM, read-out: Kd)	Kd (BSA [2]; after screening compensation, reproduced on another day (FIG. 18), read-out: Kd)	Kd (BSA [2]; weighted average of the two Kd measurements, read-out: weighted average of Kd)	Kd (BSA [3])	Kd at 500 nM ([4]; after 2-step screening compensation (FIG. 16C), [alprenolol]0=500 nM, 30 mM ammonium acetate pH 7.5)	Kd at 500 nM ([4]; measurements performed on a different day (FIGS. 20A-20D))	Kd ([5]; Bao et al. ChemBioChem 2011)	Kd ([5]; Imamura et al. Chirality 2002)
O=C1OC2(c3ccc(O)cc3Oc3cc(O)ccc32)c2ccccc21 [fluorescein]	23 ± 3 µM	20 ± 2 µM	32 ± 4 µM	24 ± 2 µM	26 ± 2 µM	~30 µM	–	–	–	–
C=CCc1ccccc1OCC(O)CNC(C)C (stereo not shown) [alprenolol, Alprenolol]	–	–	–	–	–	–	1.8 ± 0.2 µM	4.1 ± 0.8 µM	2.1 ± 0.3 µM	1.6 ± 0.1 µM
